The values that follow come from patent US20190374563A1, “TREATMENT OF KLEBSIELLA PNEUMONIAE INFECTIONS WITH ANTIBACTERIAL AMINOGLYCOSIDE COMPOUNDS” (Achaogen, Inc., priority 2009, published 2019).

The term MIC denotes the least concentration at which growth counts as inhibited.

In brackets after ≈: the same amount, converted by molar mass. Read-outs that look alike come from different tables or passages of the source.

Experiment [1] deals with P. aeruginosa ATCC 27853 (APAE001). Description: MIC assay, CLSI broth microdilution. The settings on record: Pseudomonas aeruginosa. The format is cell-based. As for the experimental part:
(§1) Minimum inhibitory concentrations (MIC) were determined by reference Clinical and Laboratory Standards Institute (CLSI) broth microdilution methods per M7-A7 [2006]. Quality control ranges utilizing E. coli ATCC 25922, P. aeruginosa ATCC 27853 and S. aureus ATCC 29213, and interpretive criteria for comparator agents were as published in CLSI M100-S17 [2007]. Briefly, serial two-fold dilutions of the test compounds were prepared at 2× concentration in Mueller Hinton Broth. The compound dilutions were mixed in 96-well assay plates in a 1:1 ratio with bacterial inoculum. The inoculum was prepared by suspension of a colony from an agar plate that was prepared the previous day. Bacteria were suspended in sterile saline and added to each assay plate to obtain a final concentration of 5×10^5 CFU/mL. The plates were incubated at 35° C. for 20 hours in ambient air.

Experiment [2] has as its system E. coli ATCC 25922 (AECO001). The experiment is described as follows: MIC assay, CLSI broth microdilution. The format is cell-based. Also on record: MIC AECO001: unit not given here. The settings on record: for MIC: Escherichia coli; for MIC AECO001: Table 3, E. coli ATCC25922. As for the experimental part: as §1
(In broth dilution the organism is exposed to a series of concentrations in liquid medium.)

The mark [3] stands for this setting: ATCC27853, read-out: MIC APAE001.
Setting [4] is: ATCC25922, read-out: MIC AECO001.
Where [5] appears, read: Table 1, APAE001 is ATCC27853, read-out: MIC APAE001.
Where [6] appears, read: Table 1, AECO001 is ATCC25922, read-out: MIC AECO001.

For `CN[C@@H]1[C@@H](O)[C@@H](O[C@@H]2[C@@H](O)[C@H](O[C@H]3OC(CNCCO)=CC[C@H]3N)[C@@H](N)C[C@H]2NC(=O)[C@H](O)CCN)OC[C@]1(C)O` [Example 2, 6′-(2-Hydroxy-ethyl)-1-(4-amino-2(R)-hydroxy-butyryl)-sisomicin], the MIC in experiment [1] (setting [3]) and in experiment [2] (setting [4]) was 1 to 16 µg/mL (≈ 1.69 to 27 µM) throughout.
As for `CN[C@@H]1[C@@H](O)[C@@H](O[C@@H]2[C@@H](O)[C@H](O[C@H]3OC(CNCC(O)CO)=CC[C@H]3N)[C@@H](N)C[C@H]2NC(=O)[C@H](O)CCN)OC[C@]1(C)O` (stereo partly drawn) [Example 3, 6′-(2-Hydroxy-propanol)-1-(4-amino-2(R)-hydroxy-butyryl)-sisomicin], the MIC was more than 16 µg/mL in experiment [1] (setting [3]) and 1 to 16 µg/mL (≈ 1.61 to 25.7 µM) in experiment [2] (setting [4]).
As to `CN[C@@H]1[C@@H](O)[C@@H](O[C@@H]2[C@@H](O)[C@H](O[C@H]3OC(CNCC4CCNCC4)=CC[C@H]3N)[C@@H](N)C[C@H]2NC(=O)[C@H](O)CCN)OC[C@]1(C)O` [Example 4, 6′-(Methyl-piperidin-4-yl)-1-(4-amino-2(R)-hydroxy-butyryl)-sisomicin], the minimal inhibitory concentration (MIC) in experiment [1] (setting [3]) and in experiment [2] (setting [4]) was 1 to 16 µg/mL (≈ 1.55 to 24.8 µM) each time.
As to `CN[C@@H]1[C@@H](O)[C@@H](O[C@@H]2[C@@H](O)[C@H](O[C@H]3OC(CNCC4CC4)=CC[C@H]3N)[C@@H](N)C[C@H]2NC(=O)[C@H](O)CCN)OC[C@]1(C)O` [Example 5, 6′-(Methyl-cyclopropyl)-1-(4-amino-2(R)-hydroxy-butyryl)-sisomicin], the MIC in experiment [1] (setting [3]) was 1 to 16 µg/mL (≈ 1.66 to 26.5 µM); in experiment [2] (setting [4]), less than 1 µg/mL.
As for `CN[C@@H]1[C@@H](O)[C@@H](O[C@@H]2[C@@H](O)[C@H](O[C@H]3OC(CNCCCN)=CC[C@H]3N)[C@@H](N)C[C@H]2NC(=O)[C@H](O)CCN)OC[C@]1(C)O` [Example 6, 6′-(3-Amino-propyl)-1-(4-amino-2(R)-hydroxy-butyryl)-sisomicin], the MIC in experiment [1] (setting [3]) and in experiment [2] (setting [4]) was 1 to 16 µg/mL (≈ 1.65 to 26.4 µM) throughout.
For the compound `CN[C@@H]1[C@@H](O)[C@@H](O[C@@H]2[C@@H](O)[C@H](O[C@H]3OC(CNCC4CC4)=CC[C@H]3N)[C@@H](N)C[C@H]2NC(=O)[C@H](O)CN)OC[C@]1(C)O` [Example 7, 6′-Methyl-cyclopropyl-1-(3-amino-2(R)-hydroxy-propionyl)-sisomicin], the MIC in experiment [1] (setting [3]) is 1 to 16 µg/mL (≈ 1.7 to 27.2 µM); in experiment [2] (setting [4]), less than 1 µg/mL.
Turning to `CN[C@@H]1[C@@H](O)[C@@H](O[C@@H]2[C@@H](O)[C@H](O[C@H]3OC(CNCC4CCNCC4)=CC[C@H]3N)[C@@H](N)C[C@H]2NC(=O)[C@H](O)CN)OC[C@]1(C)O` [Example 8, 6′-Methyl-piperidinyl-1-(3-amino-2(R)-hydroxy-propionyl)-sisomicin], the MIC in experiment [1] (setting [3]) is 1 to 16 µg/mL (≈ 1.58 to 25.3 µM); in experiment [2] (setting [4]), less than 1 µg/mL.
As to `CN[C@@H]1[C@@H](O)[C@@H](O[C@@H]2[C@@H](O)[C@H](O[C@H]3OC(CNCCO)=CC[C@H]3N)[C@@H](N)C[C@H]2NC(=O)[C@H](O)CN)OC[C@]1(C)O` [Example 9, 6′-(2-Hydroxy-ethyl)-1-(3-amino-2(R)-hydroxy-propionyl)-sisomicin], the MIC in experiment [1] (setting [3]) is more than 16 µg/mL; in experiment [2] (setting [4]) it was 1 to 16 µg/mL (≈ 1.73 to 27.6 µM).
As to `CN[C@@H]1[C@@H](O)[C@@H](O[C@@H]2[C@@H](O)[C@H](O[C@H]3OC(CNCC(O)CO)=CC[C@H]3N)[C@@H](N)C[C@H]2NC(=O)[C@H](O)CN)OC[C@]1(C)O` (stereo partly drawn) [Example 10, 6′-(2-Hydroxy-propanol)-1-(3-amino-2(R)-hydroxy-propionyl)-sisomicin], the MIC in experiment [1] (setting [3]) and in experiment [2] (setting [4]) was 1 to 16 µg/mL (≈ 1.64 to 26.3 µM) in each case.
With `CN[C@@H]1[C@@H](O)[C@@H](O[C@@H]2[C@@H](O)[C@H](O[C@H]3OC(CNCCCN)=CC[C@H]3N)[C@@H](N)C[C@H]2NC(=O)[C@H](O)CN)OC[C@]1(C)O` [Example 11, 6′-(3-Amino-propyl)-1-(3-amino-2(R)-hydroxy-propionyl)-sisomicin], the MIC is 1 to 16 µg/mL (≈ 1.69 to 27 µM) in experiment [1] (setting [3]) and less than 1 µg/mL in experiment [2] (setting [4]).
For `CN[C@@H]1[C@@H](O)[C@@H](O[C@@H]2[C@@H](O)[C@H](O[C@H]3OC(CNCC4CCNCC4)=CC[C@H]3N)[C@@H](N)C[C@H]2NC(=O)[C@@H](O)CCN)OC[C@]1(C)O` [Example 12, 6′-(Methyl-piperidin-4-yl)-1-(4-amino-2(S)-hydroxy-butyryl)-sisomicin], the MIC in experiment [1] (setting [5]) and in experiment [2] (setting [6]) was 1 to 16 µg/mL (≈ 1.55 to 24.8 µM) throughout. For the same compound, the “MIC AECO001” value in experiment [2] came to 1.
For `CN[C@@H]1[C@@H](O)[C@@H](O[C@@H]2[C@@H](O)[C@H](O[C@H]3OC(CNCC4CC4)=CC[C@H]3N)[C@@H](N)C[C@H]2NC(=O)[C@@H](O)CN)OC[C@]1(C)O` [Example 13, 6′-(Methyl-cyclopropyl)-1-(3-amino-2(S)-hydroxy-propionyl)-sisomicin], the figures for the MIC in experiment [1] (setting [5]) and in experiment [2] (setting [6]) were more than 16 µg/mL and 1 to 16 µg/mL (≈ 1.7 to 27.2 µM), respectively. For the same compound, the “MIC AECO001” value in experiment [2] stood at 1.
Take `CN[C@@H]1[C@@H](O)[C@@H](O[C@@H]2[C@@H](O)[C@H](O[C@H]3OC(CNCC(O)CO)=CC[C@H]3N)[C@@H](N)C[C@H]2NC(=O)[C@@H](O)CN)OC[C@]1(C)O` (stereo partly drawn) [Example 14, 6′-(2-Hydroxy-propanol)-1-(3-amino-2(S)-hydroxy-propionyl)-sisomicin]: the MIC in experiment [1] (setting [3]) and in experiment [2] (setting [4]) was 1 to 16 µg/mL (≈ 1.64 to 26.3 µM) each time.
Turning to `CN[C@@H]1[C@@H](O)[C@@H](O[C@@H]2[C@@H](O)[C@H](O[C@H]3OC(CNCC4CC4)=CC[C@H]3N)[C@@H](N)C[C@H]2NC(=O)[C@@H](O)CCN)OC[C@]1(C)O` [Example 18, 6′-(Methyl-cyclopropyl)-1-(4-amino-2(S)-hydroxy-butyryl)-sisomicin], the MIC in experiment [1] (setting [5]) was 1 to 16 µg/mL (≈ 1.66 to 26.5 µM); in experiment [2] (setting [6]) it was less than 1 µg/mL. Moreover, in experiment [2], the “MIC AECO001” value was 1.
For `CN[C@@H]1[C@@H](O)[C@@H](O[C@@H]2[C@@H](O)[C@H](O[C@H]3OC(CNCC(O)CO)=CC[C@H]3N)[C@@H](N)C[C@H]2NC(=O)[C@@H](O)CCN)OC[C@]1(C)O` (stereo partly drawn) [Example 19, 6′-(2-Hydroxy-propanol)-1-(4-amino-2(S)-hydroxy-butyryl)-sisomicin], the minimal inhibitory concentration (MIC) in experiment [1] (setting [3]) is 1 to 16 µg/mL (≈ 1.61 to 25.7 µM); in experiment [2] (setting [4]), less than 1 µg/mL.
As for `CN[C@@H]1[C@@H](O)[C@@H](O[C@@H]2[C@@H](O)[C@H](O[C@H]3OC(CNC(=O)C(O)CN)=CC[C@H]3N)[C@@H](N)C[C@H]2NC(=O)[C@@H](O)CN)OC[C@]1(C)O` (stereo partly drawn) [Example 20, 6′-(3-Amino-2-hydroxy-propionyl)-1-(3-amino-2(S)-hydroxy-propionyl)-sisomicin], the MIC in experiment [1] (setting [3]) and in experiment [2] (setting [4]) was more than 16 µg/mL in each case.
Take `CN[C@@H]1[C@@H](O)[C@@H](O[C@@H]2[C@@H](O)[C@H](O[C@H]3OC(CNCC(O)C(N)=O)=CC[C@H]3N)[C@@H](N)C[C@H]2NC(=O)[C@@H](O)CN)OC[C@]1(C)O` (stereo partly drawn) [Example 21, 6′-(2-Hydroxy-3-propionamide)-1-(3-amino-2(S)-hydroxy-propionyl)-sisomicin]: the MIC in experiment [1] (setting [3]) and in experiment [2] (setting [4]) was 1 to 16 µg/mL (≈ 1.61 to 25.7 µM) in each case.
For the compound `CN[C@@H]1[C@@H](O)[C@@H](O[C@@H]2[C@@H](O)[C@H](O[C@H]3OC(CNCC(O)CO)=CC[C@H]3N)[C@@H](N)C[C@H]2NC(=O)CO)OC[C@]1(C)O` (stereo partly drawn) [Example 23, 6′-(2-Hydroxy-propanol)-1-(2-hydroxy-acetyl)-sisomicin], the MIC in experiment [1] (setting [3]) and in experiment [2] (setting [4]) was more than 16 µg/mL each time.
As for `CN[C@@H]1[C@@H](O)[C@@H](O[C@@H]2[C@@H](O)[C@H](O[C@H]3OC(CNCCCN)=CC[C@H]3N)[C@@H](N)C[C@H]2NC(=O)CO)OC[C@]1(C)O` [Example 24, 6′-(3-Amino-propyl)-1-(2-hydroxy-acetyl)-sisomicin], the MIC in experiment [1] (setting [3]) and in experiment [2] (setting [4]) was 1 to 16 µg/mL (≈ 1.78 to 28.4 µM) throughout.
For `CN[C@@H]1[C@@H](O)[C@@H](O[C@@H]2[C@@H](O)[C@H](O[C@H]3OC(CNCCO)=CC[C@H]3N)[C@@H](N)C[C@H]2NC(=O)CO)OC[C@]1(C)O` [Example 25, 6′-(2-Hydroxy-ethyl)-1-(2-hydroxy-acetyl)-sisomicin], the MIC in experiment [1] (setting [3]) and in experiment [2] (setting [4]) was 1 to 16 µg/mL (≈ 1.82 to 29.1 µM) in each case.
`CN[C@@H]1[C@@H](O)[C@@H](O[C@@H]2[C@@H](O)[C@H](O[C@H]3OC(CNCCCN)=CC[C@H]3N)[C@@H](N)C[C@H]2NS(=O)(=O)CCN)OC[C@]1(C)O` [Example 26, 6′-(3-Amino-propyl)-1-(2-amino-ethylsulfonamide)-sisomicin]: the MIC in experiment [1] (setting [3]) and in experiment [2] (setting [4]) was 1 to 16 µg/mL (≈ 1.63 to 26.2 µM) in each case.
For `CN[C@@H]1[C@@H](O)[C@@H](O[C@@H]2[C@@H](O)[C@H](O[C@H]3OC(CNCC(O)CO)=CC[C@H]3N)[C@@H](N)C[C@H]2NS(=O)(=O)CCN)OC[C@]1(C)O` (stereo partly drawn) [Example 27, 6′-(2-Hydroxy-propanol)-1-(2-amino-ethylsulfonamide)-sisomicin], the MIC in experiment [1] (setting [3]) was more than 16 µg/mL; in experiment [2] (setting [4]), 1 to 16 µg/mL (≈ 1.59 to 25.4 µM).
Turning to `CN[C@@H]1[C@@H](O)[C@@H](O[C@@H]2[C@@H](O)[C@H](O[C@H]3OC(CNC[C@H](O)CO)=CC[C@H]3N)[C@@H](N)C[C@H]2NC(=O)[C@@H](O)CCN)OC[C@]1(C)O` [Example 28, 6′-(2(S)-Hydroxy-propanol)-1-(4-amino-2(S)-hydroxy-butyryl)-sisomicin], the MIC in experiment [1] (setting [3]) and in experiment [2] (setting [4]) was 1 to 16 µg/mL (≈ 1.61 to 25.7 µM) each time.
`CN[C@@H]1[C@@H](O)[C@@H](O[C@@H]2[C@@H](O)[C@H](O[C@H]3OC(CNCCO)=CC[C@H]3N)[C@@H](N)C[C@H]2NS(=O)(=O)CCN)OC[C@]1(C)O` [Example 29, 6′-(2-Hydroxy-ethyl)-1-(2-amino-ethylsulfonamide)-sisomicin]: the MIC was more than 16 µg/mL in experiment [1] (setting [3]) and 1 to 16 µg/mL (≈ 1.67 to 26.7 µM) in experiment [2] (setting [4]).
